Data taken from article PMC7703437, “In Vitro Hepatic Metabolism of Curcumin Diethyl Disuccinate by Liver S9 from Different Animal Species” (Frontiers in Pharmacology, 2020).
Values joined by “and” are separate entries in the source; they are usually repeats but may differ in a detail not shown here. Identical values can stand only once.

What was measured:
[1] = In vitro metabolism profiling of CDD in human liver S9 (1 mg/ml); assay type: in vitro ADME; settings: pooled liver S9; human LS9 1 mg/ml; read-out: t 1/2 (CDD)
Procedure: (§1) The metabolism profiles of CDD were investigated against HLS9, MLS9, DLS9, and RLS9. A stock solution of CDD was prepared at 150 µM in 50% acetonitrile in water before use. The metabolism study was initiated by spiking 735 µl of preincubated LS9 with 15 µl of CDD stock solution, and the mixture was subsequently incubated at 37°C. The final concentrations of CDD and LS9 were 3 μM and 1 mg/ml, respectively. A 50-µl aliquot from the mixture was collected at 0.5, 1, 2, 3, 4, 5, 10, 15, 30, 45, 60, 90, and 120 min and immediately mixed with 100 µl of ice-cold acetonitrile containing 0.45 µM of internal standard DMC to terminate the metabolic reaction. […] The sample at the initial time point (0 min) was prepared as the other samples, except that heat-inactivated HLS9, MLS9, DLS9, and RLS9 (80°C for 20 min; 1 mg/ml protein) were used.
(§2) The UHPLC system consisted of an Agilent series 1290 quaternary pump with an online degasser, autosampler, column oven, and diode array detector. The mobile phase was composed of (A) 0.1% (v/v) formic acid in acetonitrile and (B) 0.1% (v/v) formic acid in water. Each solution was filtered through a nylon filter (pore size, 0.22 µm; MS® Membrane Filters; Membrane Solutions, United States) before use. The mobile phase flow rate was kept at 1.2 ml/min in a gradient mode using the following elution program: 0–3.0 min, initial A-B (40:60, v/v); 4.5–7.0 min, isocratic elution A-B [50:50, (v/v); 8.5–11.0 min, isocratic elution A-B (60:40, v/v); and 12.0–17.0 min, isocratic elution A-B (40:60, v/v)]. CDD, curcumin, and MSCUR in the supernatant were partitioned using a C8 column (4.6 mm × 50 mm, 2.7 µm; HALO, Advanced Materials Technology, United States) with reference to DMC. The detection wavelength was set at 400 nm (λ max(CDD) = 400 nm, λ max(curcumin) = 427 nm, λ max(MSCUR) = 418 nm, and λ max(DMC) = 421 nm). The column was maintained at 35°C throughout the run, and the supernatant injection volume was set at 20 µl.
(§3) The concentrations of CDD, curcumin, and MSCUR in the supernatant were determined from the standard plots, which were prepared by spiking individual working solutions of the compounds to heat-inactivated HLS9, MLS9, DLS9, and RLS9 ([Alcorn et al., 2007]; [Montoro-Garcia et al., 2009]; [Singh et al., 2010]). These working standards were extracted with 100 µl of ice-cold acetonitrile containing 0.45 µM of DMC and then 120 μl of the supernatant was diluted with 40 μl of water prior to the UHPLC analysis. The peak area ratios of CDD, curcumin, and MSCUR to the internal standard were computed against linear concentration ranges of 0.025–4.5 µM CDD, 0.025–4.5 µM curcumin, and 0.0125–0.75 µM MSCUR, respectively, with the coefficient of determination (r^2) values greater than 0.99.
(§4) The percent content of CDD and the metabolites formed upon its incubation with LS9, namely, curcumin and MSCUR, was plotted against incubation time.
(§5) The following equations were adopted to describe the changes in CDD and MSCUR content over time (t): A = A0e^−k1t (2) B= k1A0/k2−k1(e^−k1t−e^−k2t), (3) where A0 is the CDD concentration at time 0, k 1 is the degradation rate constant of CDD, and k 2 is the degradation rate constant of MSCUR. k 1 and k 2 were determined by using Eqs. 2 and 3, respectively, with nonlinear regression analysis using the SOLVER function of Microsoft Excel for Office 365 MSO (16.0.12527.20986) ([Brown, 2001]). The half-life (t 1/2) was calculated using Eq. 4: t1/2=0.693/k (4)
(§6) The in vitro intrinsic clearance (CLint,in vitro) of CDD and MSCUR in LS9 was calculated using Eq. 5: CLint, in vitro= k × [V]incubation(ml)/[P]incubation(mg protein), (5) where [V]incubation is the incubation volume in ml, and [P]incubation is the amount of LS9. […]

human LS9 (HLS9; pooled) = assay: as above; assay type: in vitro ADME
Procedure: as §1, §2, §3, §4, §5, §6

RLS9 = assay: CDD depletion in RLS9 0.02 mg/ml (optimisation of incubation condition); assay type: in vitro ADME, rat; settings: CDD 3 μM
Procedure: The metabolism profiles of CDD and curcumin formation profile were investigated against HLS9, MLS9, DLS9 and RLS9. A stock solution of CDD was prepared at 150 µM in 50% acetonitrile in water before use. The metabolism study was initiated by spiking a 588 µl pre-incubated LS9 with 12 µl CDD stock solution, and subsequently incubated at 37°C. The final concentrations of CDD and LS9 were 3 µM and 0.02 mg/ml, respectively. A 50 µl aliquot from the mixture was collected at 0.5, 1, 2, 3, 4, 5, 10, 15, 30, 45 and 60 min and was immediately mixed with 100 µl of ice-cold acetonitrile containing 0.45 µM of internal standard DMC to terminate the metabolic reaction. […] Samples of 120 µl of supernatant wee diluted with 40 µl of water prior to UHPLC analysis (Agilent series 1290, Agilent Technology, USA) by means of protocol outlined in Materials and Methods:“In vitro Metabolism Profiling of Curcumin Diethyl Disuccinate”. The sample at 0 min was prepared as other samples except that heat-inactivated HLS9, MLS9, DLS9 and RLS9 (80°C for 20 min; 1 mg/ml protein) were used. Duplicates were conducted for each experiment.
The peak area ratios of CDD and curcumin to internal standard in the supernatant were determined. The percent contents of CDD and curcumin were plotted against incubation time. The depletion of CDD was calculated with reference to the initial concentration. The saturated substrate was defined as % depletion less than 30.

half-life [1]: 0.46 ± 0.06 min
CLint, in vitro(CDD) in HLS9 higher than in DLS9 (human LS9 (HLS9; pooled); HLS9 vs DLS9): 1.8 fold
CLint, in vitro(CDD) in HLS9 higher than in MLS9 (human LS9 (HLS9; pooled); HLS9 vs MLS9): 1.9 fold
CLint, in vitro(CDD) in HLS9 higher than in RLS9 (human LS9 (HLS9; pooled); HLS9 vs RLS9): 2.2 fold
CLint, in vitro(CDD) (human LS9 (HLS9; pooled); human LS9): 1.51 ± 0.22 ml min^−1 mg protein^−1
k 1 (CDD) (human LS9 (HLS9; pooled); human LS9 1 mg/ml, CDD 3 µM, 37°C): 1.51 ± 0.22 min⁻¹
CLint, in vivo(CDD) (human LS9 (HLS9; pooled); human, scaled from CLint,in vitro with physiologically based scaling factors): 282.18 ± 41.74 L/h/kg
CLint, in vivo total (human LS9 (HLS9; pooled); human, sum of CLint,in vivo(CDD) and CLint,in vivo(MSCUR)): 2,533.38 ± 124.30 L h^−1 kg^−1
CLH (predicted hepatic clearance) (human LS9 (HLS9; pooled); human, well-stirred model, QH 20 ml min^−1 kg^−1, fup 0.0594): 1.19 ± 4.61 × 10^–4 L h^−1 kg^−1
% CDD remaining (RLS9; 0.5 min): 82.81%
%Depletion of CDD (RLS9; 0.5 min): 17.19%
% CDD remaining (RLS9; 1 min): 78.14%
%Depletion of CDD (RLS9; 1 min (selected incubation time)): 22% and 21.86%
% CDD remaining (RLS9; 2 min): 62.71%
%Depletion of CDD (RLS9; 2 min): 37.29%
% CDD remaining (RLS9; 3 min): 56.54%
%Depletion of CDD (RLS9; 3 min): 43.46%
% CDD remaining (RLS9; 4 min): 46.44%
%Depletion of CDD (RLS9; 4 min): 53.56%
% CDD remaining (RLS9; 5 min): 40.58%
%Depletion of CDD (RLS9; 5 min): 59.42%
SMILES: CCOC(=O)CCC(=O)Oc1ccc(/C=C/C(=O)/C=C(O)/C=C/c2ccc(OC(=O)CCC(=O)OCC)c(OC)c2)cc1OC [CDD, curcumin diethyl disuccinate]
